The values below come from patent US4689227A, “Antibacterial composition” (Hoffmann-La Roche Inc., priority 1984, dated 1987).

Values after ≈ are worked out from the molar mass of the structure shown. Where two headings read alike, the source gives them in different places. Bounds are passed on as bounds.

Holding throughout (format): cell-based
The test system of assay [1] is Acinetobacter anitratus 5I-156. The assay is described as follows: In vitro activity (MIC), agar dilution test. The settings on record: Acinetobacter calcoaceticus, 5I156. The source says: (§1) In the following Table there are presented for the composition in accordance with the invention the minimum inhibitory concentrations (MIC values in μ/ml) determined in in vitro comparative tests in the case of various infections with pathogenic microorganisms.
(§2) In vitro activity of compound A and mecillinam (MEC) against various
(§3) of bacteria (MIC μg/ml) Method: Agar dilution test with DST agar

Assay [2] concerns Citrobacter freundii 1385 b. Put plainly: In vitro activity (MIC), agar dilution test.
From the text: as §1, §2, §3
(In agar dilution the substance is mixed into plates at graded concentrations.)

The subject of assay [3] is Citrobacter freundii 1982. The assay is described as follows: In vitro activity (MIC), agar dilution test.
From the text: as §1, §2, §3

For assay [4], the system named is Enterobacter agglomerans 960. The assay is described as follows: In vitro activity (MIC), agar dilution test. The settings on record: Pantoea agglomerans.
From the text: as §1, §2, §3

Another assay deals with Enterobacter cloacae 163. Put plainly: In vitro activity (MIC), agar dilution test.
From the text: as §1, §2, §3

In the next assay the test system is Enterobacter cloacae 5. Put plainly: In vitro activity (MIC), agar dilution test.
From the text: as §1, §2, §3

In a further assay the test system is Enterobacter cloacae 908. The assay is described as follows: In vitro activity (MIC), agar dilution test.
From the text: as §1, §2, §3

Assay [5] has as its system Enterobacter cloacae MK 1617. The assay is described as follows: In vitro activity (MIC), agar dilution test.
From the text: as §1, §2, §3

Assay [6] has as its system Enterobacter cloacae MK 373. Put plainly: In vitro activity (MIC), agar dilution test. As to conditions: MK373.
From the text: as §1, §2, §3

The next assay relates to Enterobacter cloacae P99. The assay is described as follows: In vitro activity (MIC), agar dilution test.
From the text: as §1, §2, §3

For a further assay, the system named is Escherichia coli 5/9. The assay is described as follows: In vitro activity (MIC), agar dilution test.
From the text: as §1, §2, §3

Assay [7] has as its system Pseudomonas aeruginosa 143724 R. Put plainly: In vitro activity (MIC), agar dilution test.
From the text: as §1, §2, §3

Assay [8] deals with Pseudomonas aeruginosa 1920 E. Put plainly: In vitro activity (MIC), agar dilution test.
From the text: as §1, §2, §3

In assay [9] the test system is Pseudomonas aeruginosa 1937 E. The assay is described as follows: In vitro activity (MIC), agar dilution test.
From the text: as §1, §2, §3

Assay [10] relates to Pseudomonas aeruginosa 5646. Put plainly: In vitro activity (MIC), agar dilution test.
From the text: as §1, §2, §3

In assay [11] the test system is Pseudomonas aeruginosa 5748. The assay is described as follows: In vitro activity (MIC), agar dilution test.
From the text: as §1, §2, §3

In a further assay the test system is Enterobacter strains. Put plainly: Activity and synergism against Enterobacter strains.
From the text: In the scope of the present invention it has been ascertained that compound A, which has hitherto not been considered as a combination partner for mecillinam, is especially well suited for such a combination.
as §1

Where [12] appears, read: single substance, DST agar (Oxoid), read-out: MIC.

Regarding `NC(=O)OC[C@@H]1[C@H](NC(=O)/C(=N\OCC(=O)O)c2csc(N)n2)C(=O)N1S(=O)(=O)O` [Compound A, (2S,3S)-3-((Z)-2-(2-amino-4-thiazolyl)-2-[(carboxymethoxy)imino]acetamido)-2-[(carbamoyloxy)-methyl]-4-oxo-1-azetidinesulphonic acid], the minimum inhibitory concentration (MIC) was 16 µg/mL (≈ 34.3 µM) in assay [1] (setting [12]); 8 µg/mL (≈ 17.2 µM) in assay [2] (setting [12]); 4 µg/mL (≈ 8.58 µM) in assay [3] (setting [12]); 16 µg/mL (≈ 34.3 µM) in assay [4] (setting [12]); 32 µg/mL (≈ 68.6 µM) in the assay on Enterobacter cloacae 163 (setting [12]); 8 µg/mL (≈ 17.2 µM) in the assay with Enterobacter cloacae 5 (setting [12]). The MIC in the assay on Enterobacter cloacae 908 (setting [12]) was found to be 32 µg/mL (≈ 68.6 µM); in assay [5] (MK1617, single substance, DST agar (Oxoid), read-out: MIC), 32 µg/mL (≈ 68.6 µM); in [6], 4 µg/mL (≈ 8.58 µM); with Enterobacter cloacae P99, 16 µg/mL (≈ 34.3 µM); in the assay with Escherichia coli 5/9 (setting [12]), 2 µg/mL (≈ 4.29 µM); in assay [7] (setting [12]) it was 8 µg/mL (≈ 17.2 µM). The MIC in assay [8] (setting [12]) worked out at 4 µg/mL (≈ 8.58 µM); in assay [9] (setting [12]), 2 µg/mL (≈ 4.29 µM); in [10] (setting [12]), 8 µg/mL (≈ 17.2 µM); in [11] it was 8 µg/mL (≈ 17.2 µM). Also, the “sensitivity of the strains” value with Enterobacter strains is on record as “only moderately sensitive”.

For `CC1(C)S[C@@H]2[C@H](/N=C/N3CCCCCC3)C(=O)N2[C@H]1C(=O)O` [MEC, mecillinam], the MIC (in [1]; in assay [2]; in assay [3]; in assay [4]; with Enterobacter cloacae 163; against Enterobacter cloacae 5) was above 256 µg/mL each time. For the same compound, the minimum inhibitory concentration (MIC) (in the assay with Enterobacter cloacae 908; in [5] (MK1617); in assay [6]; against Enterobacter cloacae P99; in the assay on Escherichia coli 5/9; in [7]) was above 256 µg/mL in each case. The MIC in assay [8], in [9], in assay [10] and in [11] was above 256 µg/mL throughout. For the same compound, the “sensitivity of the strains” value in the assay on Enterobacter strains is recorded as “resistant”.

By MIC is commonly meant the lowest concentration found to suppress growth.
